Measured values as given in US20210017607A1, “Methods of Predicting Responsiveness to Cancer Therapies” (The University of Chicago, priority 2019, published 2021).

Columns and labels:
[1] = tested on: single cell suspensions derived from Myc-CAP (STING^lo) tumors; assay: Ex vivo reconstitution assay, IFNβ ELISA; assay type: cell-based, mouse; conditions: for IFNβ production within supernatants: ex vivo drug treatment, 36 hours
Procedure: FIGS. 15A-15E. Differential STING pathway activation within B6-Myc (STING^hi) cell lines and BMDMs relative to Myc-CAP (STING^lo) cells. (15A, 15B) The indicated cancer cell lines and BMDMs were treated with DMXAA (mouse STING agonist) for 1 and 24 hours, respectively, and protein extracts were interrogated for cGAS/STING pathway activation with the indicated antibodies by Western blotting. Supernatants were collected from for IFNβ1 ELISA following 36 hours of treatment with DMXAA (15C, 15D). (15E) Syngeneic Myc-CAP (STING^lo) tumors were processed into single cell suspensions and used for phycoerythrin-based sorting of CD45+ cellular fractions. Equal numbers of cells from these fractions were stimulated with DMXAA. Supernatants were collected at 36 hrs for detection of IFNB1 by ELISA; n=3 independent experiments; Significance/p-values were calculated by one-way Anova (for 15C & 15E) or paired t-test (for 15D); TAM=tumor associated macrophage; s.e.=short exposure; l.e.=long exposure.
FIGS. 29A-29M. PARPi alone induces DNA DSBs, but not apoptosis even in combination with PI3Ki in Myc-CAP (STING^lo) cancer cells; PARPi/PI3Ki combination induces intracellular DNA DSBs and proportionate release of MV surface-associated DNA DSBs from B6-Myc (STINGhi) cancer cells without affecting cellular viability; PARPi/PI3K treatment activates tumor-cell extrinsic cGAS/STING pathway within TAMs in vivo via MV surface-associated DNA DSBs released from tumor cells. Myc-CAP cancer cells were treated with the indicated drugs singly or in combination for 36 hours. (29A) Cells were stained with anti-mouse specific p-γH2AX antibody and a fluorescently labeled secondary antibody for determination of DNA DSBs, which were quantified by confocal microscopy. (29B) Protein extracts from cells in 29A were analyzed for the indicated pharmacodynamic biomarkers by western blotting; (29C) Annexin V-PI staining was done to assess frequency of live cells (Annexin V^− PI^−) following drug treatment. (29D) Ultracentrifugation was utilized to purify microvesicles (MVs) from supernatants in treatment groups in (29A) and associated DNA DSBs was quantified by Nanodrop®. Independent experiments n=2. (29E) Ultracentrifugation was utilized to purify MVs from supernatants in indicated treatment groups in FIG. 17A, and associated DNA DSBs were quantified by Nanodrop®; n=2 independent experiments. (29F) Syngeneic mice were engrafted with Myc-CAP (STING^lo) cells, and tumors were harvested when the tumor volume reached 400 mm^3. Single cell suspensions of the tumors were treated with the indicated drug(s), in the presence or absence of GW4869 (MV biogenesis inhibitor). (29G) Bone marrow derived macrophage (BMDMs) were co-cultured for 30 hours with supernatants (−/+ exogenous 50 units of DNase I pre-treatment for 30 minutes) from Myc-CAP cells that were treated with the indicated drug(s) for 36 hours. (29H) cGAMP (10 μg/mL) was pre-incubated with 10 units of DNAse I or mock control for 30 minutes and then added to BMDMs for 30 hours. (29I-29L) STING^+/+/STING^−/− BMDMs were co-cultured for 36 hours with supernatants from Myc-CAP and B6-Myc cancer cells that were treated with the indicated drug(s) for 36 hours. Supernatants were collected from 29F-29L at the end of treatment and analyzed for IFNβ1 by ELISA. […] Tumor volume was recorded daily for duration of experiment. […] Significance/p-values were calculated by one-way ANOVA. […]

[2] = tested on: Myc-CAP (STING^lo) tumors; assay: Myc-CAP syngeneic tumor growth; assay type: in vivo, mouse; conditions: immunocompetent syngeneic mice
Procedure: FIGS. 25A and 25B. […] (25A-25B) Myc-CAP (STING^lo) tumor-bearing syngeneic mice were treated with the indicated drug(s) until untreated tumors reached approx. 2500 mm^3. Tumor volume curves for duration of treatment are shown.
FIGS. 26A-26D. […] Immunodeficient athymic nude (26A) and NOD-SCID (26B) mice were engrafted with Myc-CAP (STING^lo) tumors and treated with the indicated drug(s) until untreated tumors reached approx. 2000 mm^3. Tumor volume curves for duration of treatment are shown. For 26A-26B, n=3-4 mice per group. (26C-26D) Single-cell suspensions were generated from harvested tumors and analyzed by flow cytometry for the indicated immune cell populations and their activation states. Data are represented relative to CD45+ immune cells. For 26C-26D, n=3-5 animals per treatment group from 2 independent experiments. Significance/p-values were calculated by […].
FIGS. 29A-29M. […] Myc-CAP cancer cells were treated with the indicated drugs singly or in combination for 36 hours. (29A) Cells were stained with anti-mouse specific p-γH2AX antibody and a fluorescently labeled secondary antibody for determination of DNA DSBs, which were quantified by confocal microscopy. (29B) Protein extracts from cells in 29A were analyzed for the indicated pharmacodynamic biomarkers by western blotting; (29C) Annexin V-PI staining was done to assess frequency of live cells (Annexin V^− PI^−) following drug treatment. (29D) Ultracentrifugation was utilized to purify microvesicles (MVs) from supernatants in treatment groups in (29A) and associated DNA DSBs was quantified by Nanodrop®. Independent experiments n=2. (29E) Ultracentrifugation was utilized to purify MVs from supernatants in indicated treatment groups in FIG. 17A, and associated DNA DSBs were quantified by Nanodrop®; n=2 independent experiments. (29F) Syngeneic mice were engrafted with Myc-CAP (STING^lo) cells, and tumors were harvested when the tumor volume reached 400 mm^3. Single cell suspensions of the tumors were treated with the indicated drug(s), in the presence or absence of GW4869 (MV biogenesis inhibitor). (29G) Bone marrow derived macrophage (BMDMs) were co-cultured for 30 hours with supernatants (−/+ exogenous 50 units of DNase I pre-treatment for 30 minutes) from Myc-CAP cells that were treated with the indicated drug(s) for 36 hours. (29H) cGAMP (10 μg/mL) was pre-incubated with 10 units of DNAse I or mock control for 30 minutes and then added to BMDMs for 30 hours. (29I-29L) STING^+/+/STING^−/− BMDMs were co-cultured for 36 hours with supernatants from Myc-CAP and B6-Myc cancer cells that were treated with the indicated drug(s) for 36 hours. Supernatants were collected from 29F-29L at the end of treatment and analyzed for IFNβ1 by ELISA. (29M) Myc-CAP (STING^lo) tumor-bearing mice were treated with the indicated drug(s) until tumors first reached approx. 2500 mm^3. For the degerelix/rucaparib/buparlisib combination, additional cohorts of mice underwent concomitant treatment with STING antagonist H-151 or GW4869. Tumor volume was recorded daily for duration of experiment. For in vitro experiments, n=2 independent experiments and for in vivo experiments n=3-4 animals /group.

SMILES | IFNβ production within supernatants [1] | tumor growth response [2] | IFN-β response within the CD45-negative tumor cell fraction ([1]; ex vivo DMXAA treatment) | fold increase in IFN-β levels within the TME ([1]; ex vivo DMXAA treatment) [fold]
Nc1cc(C(F)(F)F)c(-c2cc(N3CCOCC3)nc(N3CCOCC3)n2)cn1 [buparlisib] | not observed | not observed |  | 
CNCc1ccc(-c2[nH]c3cc(F)cc4c3c2CCNC4=O)cc1 [rucaparib] | not observed | not observed |  | 
Cc1ccc2c(=O)c3cccc(CC(=O)O)c3oc2c1C [DMXAA, 5,6-Dimethylxanthenone-4-acetic Acid] |  |  | lack of response | 11.4
